# Measurements published in US20020026053A1, “Novel 3-(substituted) -2- indolinones compounds and use thereof as inhibitors of protein kinase activity” (priority 1997, published 2002).
# Biological target: T1, EGFR (Homo sapiens, UniProt P00533)
# T1 construct: endogenous in cells; host or cells: A431 cells (lysate, captured with SUMO1 anti-EGFR antibody)
# Test: Biochemical EGFR Assay
# Set-up: concentration or dose not given beside the values
# Method: This assay measures the in vitro kinase activity of EGFR using ELISA.
# 1. Corning 96-well Elisa plates (Corning Catalog No. 25805-96).
# 2. SUMO1 monoclonal anti-EGFR antibody (Biochemistry Lab, SUGEN, Inc.).
# 3. PBS (Dulbecco's Phosphate-Buffered Saline, Gibco Catalog No. 450-1300EB).
# 6. A431 cell lysate (Screening Lab, SUGEN, Inc.)
# 9. Adenosine-5′-triphosphate (ATP, from Equine muscle, Sigma Cat. No. A-5394).
# Prepare a 1.0 mM solution in dH2O. This reagent should be made up immediately prior to use and kept on ice.
# Prepare a 1.0 M stock solution in dH2O.
# 11. ATP/MnCl2 phosphorylation mix
# This reagent should be prepared immediately before use and kept on ice
# 12. NUNC 96-well V bottom polypropylene plates (Applied Scientific Cat. No. AS-72092).
# 13. Ethylenediaminetetraacetic acid (EDTA)
# Prepare 200 mM working solution in dH2O. Adjust to pH 8.0 with 10 N NaOH.
# 14. Rabbit polyclonal anti-phosphotyrosine serum (Biochemistry Lab, SUGEN, Inc.)
# 15. Goat anti-rabbit IgG peroxidase conjugate (Biosource Cat. No. ALI0404)
# 16. ABTS (2,2′-azino-bis(3-ethylbenzthiazoline-6-sulfonic acid), Sigma Cat. No. A-1888).
# Mix first two ingredients in about 900 ml dH2O, adjust pH to 4.0 with phosphoric acid. Add ABTS, cover, let sit about 0.5 hr., filter. The solution should be kept in the dark at 4° C. until ready to use.
# 17. Hydrogen peroxide 30% solution (Fisher Cat. No. H325)
# Mix 15 ml ABTS solution and 2.0 μl H2O2. Prepare 5 minutes before use.
# 1. Coat Corning 96 well ELISA plates with 0.5 μg SUMO1 in 100 μl PBS per well, store overnight at 4° C.
# 2. Remove unbound SUMO1 from wells by inverting plate to remove liquid. Wash 1× with dH2O. Pat the plate on a paper towel to remove excess liquid.
# 3. Add 150 μl of Blocking Buffer to each well. Incubate for 30 min. at room temperature with shaking.
# 4. Wash plate 3× with deionized water, then once with TBST. Pat plate on a paper towel to remove excess liquid and bubbles.
# 5. Dilute lysate in PBS (7 μg lysate/100 μl PBS)
# 6. Add 100 μl of diluted lysate to each well. Shake at room temperature for 60 min.
# 7. Wash plates as described in 4, above.
# 8. Add 120 μl TBS to ELISA plate containing captured EGFR.
# 9. Dilute test compound 1:10 in TBS in 96-well polypropylene plates (ie. 10 μl compound+90 μl TBS).
# 10. Add 13.5 μl diluted test compound to ELISA plate.
# 11. Incubate for 30 minutes while shaking at room temperature.
# 13. After 5 minutes, stop reaction by adding 16.5 μl of 200 mM EDTA (pH 8.0) to each well, shaking continuously. After the EDTA has been added, shake for 1 min.
# 14. Wash 4× with deionized water, twice with TBST.
# 15. Add 100 μl anti-phosphotyrosine (1:3000 dilution in TBST) per well. Incubate 30-45 min. at room temperature, with shaking.
# 16. Wash as described in 4, above.
# 17. Add 100 μl Biosource Goat anti-rabbit IgG peroxidase conjugate (1:2000 dilution in TBST) to each well. Incubate 30 min. at room temperature, with shaking.
# 18. Wash as described in 4, above.
# 19. Add 100 μl of ABTS/H2O2 solution to each well.
# 20. Incubate 5 to 10 minutes with shaking. Remove any bubbles.
# 21. If necessary stop reaction with the addition of 100 μl 0.2 M HCl per well.
# 22. Read assay on Dynatech MR7000 ELISA reader. Test Filter: 410 nM Reference Filter: 630 nM
# T1 sequence (P00533 25-1210): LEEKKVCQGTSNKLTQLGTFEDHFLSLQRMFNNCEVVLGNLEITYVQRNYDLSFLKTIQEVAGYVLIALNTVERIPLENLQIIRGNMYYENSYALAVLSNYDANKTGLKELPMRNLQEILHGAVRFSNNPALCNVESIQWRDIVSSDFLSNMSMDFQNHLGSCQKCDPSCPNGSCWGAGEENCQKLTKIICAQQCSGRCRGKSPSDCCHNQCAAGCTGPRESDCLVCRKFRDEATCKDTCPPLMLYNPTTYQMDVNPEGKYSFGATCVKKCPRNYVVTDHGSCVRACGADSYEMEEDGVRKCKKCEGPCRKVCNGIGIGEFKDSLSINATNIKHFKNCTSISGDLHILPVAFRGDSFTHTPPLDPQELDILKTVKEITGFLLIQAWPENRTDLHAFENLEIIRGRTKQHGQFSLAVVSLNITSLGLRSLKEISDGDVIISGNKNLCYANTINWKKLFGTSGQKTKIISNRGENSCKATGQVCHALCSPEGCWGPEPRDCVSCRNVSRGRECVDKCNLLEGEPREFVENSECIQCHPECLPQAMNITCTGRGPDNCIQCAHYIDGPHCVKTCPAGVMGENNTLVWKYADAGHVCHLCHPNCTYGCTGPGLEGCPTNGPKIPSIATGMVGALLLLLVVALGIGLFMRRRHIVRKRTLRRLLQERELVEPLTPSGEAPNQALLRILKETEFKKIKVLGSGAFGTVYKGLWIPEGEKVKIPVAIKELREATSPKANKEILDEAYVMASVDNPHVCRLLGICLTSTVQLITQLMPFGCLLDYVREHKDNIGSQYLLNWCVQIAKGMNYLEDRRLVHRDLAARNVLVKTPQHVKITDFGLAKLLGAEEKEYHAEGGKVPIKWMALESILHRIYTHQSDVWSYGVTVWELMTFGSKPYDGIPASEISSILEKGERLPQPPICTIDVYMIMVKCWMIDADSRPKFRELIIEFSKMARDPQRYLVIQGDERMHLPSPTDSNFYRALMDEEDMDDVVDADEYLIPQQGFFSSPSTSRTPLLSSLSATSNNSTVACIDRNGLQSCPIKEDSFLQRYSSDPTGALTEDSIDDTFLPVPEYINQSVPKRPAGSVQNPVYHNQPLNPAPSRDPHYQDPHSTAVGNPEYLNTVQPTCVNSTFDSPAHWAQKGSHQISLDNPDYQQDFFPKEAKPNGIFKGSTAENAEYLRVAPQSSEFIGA
row,Structure (SMILES),Biochem EGFR % Inhibition (P.167) [%]
1,COc1cc(OC)c(OC)cc1C=C1C(=O)Nc2c(Br)cc(Br)c(C)c21 [10730/H03],−3.4
2,Cc1c(Br)cc(Br)c2c1C(=Cc1cc3ccccc3nc1Cl)C(=O)N2 [10730/H08],−15.8
3,CCN(CC)c1ccc(C=C2C(=O)Nc3c(Br)cc(Br)c(C)c32)cc1 [10727/H02],−37.1
4,Cc1c(Br)cc(Br)c2c1C(=C1C(=O)Nc3ccccc31)C(=O)N2 [10726/H09],−0.1
5,Cc1c(Br)cc(Br)c2c1C(=Cc1cc(I)c(OCc3ccccc3)c(C(C)(C)C)c1)C(=O)N2 [10733/H02],3.2
6,Cc1c(Br)cc(Br)c2c1C(=Cc1ccc3c(c1)Cc1ccccc1-3)C(=O)N2 [10728/H06],−22.8
7,COc1c(C)cc(C=C2C(=O)Nc3c(Br)cc(Br)c(C)c32)cc1C [10733/H06],−10.5
8,COc1cc(C=C2C(=O)Nc3c(Br)cc(Br)c(C)c32)cc(OC)c1OC [10730/H04],−29.5
9,Cc1c(Br)cc(Br)c2c1C(=Cc1ccc(F)cc1)C(=O)N2 [10717/H05],−2.0
10,COc1cccc(C=C2C(=O)Nc3c(Br)cc(Br)c(C)c32)c1OC [10727/H11],−3.5
11,COc1c(Cl)cc(C=C2C(=O)Nc3c(Br)cc(Br)c(C)c32)cc1C(C)(C)C [10732/H09],−7.4
12,COc1cccc(OC)c1C=C1C(=O)Nc2c(Br)cc(Br)c(C)c21 [10728/H03],3.5
13,Cc1c(Br)cc(Br)c2c1C(=Cc1cc(Br)c(OCc3ccccc3)c(C(C)(C)C)c1)C(=O)N2 [10732/H08],−14.0
14,Cc1c(Br)cc(Br)c2c1C(=Cc1ccc(Br)o1)C(=O)N2 [10726/H05],2.2
15,Cc1c(Br)cc(Br)c2c1C(=Cc1coc3ccc([N+](=O)[O-])cc3c1=O)C(=O)N2 [10731/H07],−1.7
16,Cc1c(Br)cc(Br)c2c1C(=Cc1c[nH]c3ccccc13)C(=O)N2 [10717/H06],−16.8
17,COc1c([N+](=O)[O-])cc(C=C2C(=O)Nc3c(Br)cc(Br)c(C)c32)cc1C(C)(C)C [10733/H03],−16.5
18,Cc1c(Br)cc(Br)c2c1C(=Cc1cc(C(C)(C)C)c(OCc3ccccc3)c(C(C)(C)C)c1)C(=O)N2 [10733/H05],15.9
19,Cc1ccc2occ(C=C3C(=O)Nc4c(Br)cc(Br)c(C)c43)c(=O)c2c1 [10731/H06],−7.8

row,Structure (SMILES),Biochem EGFR % Inhibition (P.167) [%]
1,COc1ccc(C=C2C(=O)Nc3c(Br)cc(Br)c(C)c32)cc1 [10726/H11],1.5
2,CCc1ccc(C=C2C(=O)Nc3c(Br)cc(Br)c(C)c32)s1 [10726/H10],12.0
3,C=C(C)C1CC=C(C=C2C(=O)Nc3c(Br)cc(Br)c(C)c32)CC1 (centres unmarked) [10731/H04],−1.7
4,Cc1c(Br)cc(Br)c2c1C(=Cc1ccc(N3CCCC3)cc1)C(=O)N2 [10729/H10],2.1
5,Cc1c(Br)cc(Br)c2c1C(=C1C(=O)Nc3ccc(F)cc31)C(=O)N2 [10726/H08],−16.6
6,Cc1c(Br)cc(Br)c2c1C(=Cc1cc(O)c3c(c1O)CCCC3)C(=O)N2 [10726/H07],31.2
7,Cc1c(Br)cc(Br)c2c1C(=Cc1cc(Cl)cc(Br)c1O)C(=O)N2 [10727/H04],19.2
8,Cc1c(Br)cc(Br)c2c1C(=Cc1ccccn1)C(=O)N2 [10729/H07],30.0
9,COc1cc(C=C2C(=O)Nc3c(Br)cc(Br)c(C)c32)cc2c1OCO2 [10728/H11],−25.6
10,COc1ccc2[nH]cc(C=C3C(=O)Nc4c(Br)cc(Br)c(C)c43)c2c1 [10731/H09],−2.7
11,Cc1c(Br)cc(Br)c2c1C(=Cc1cc3c(cc1Cl)OCO3)C(=O)N2 [10727/H06],−35.8
12,COc1c(C(C)(C)C)cc(C=C2C(=O)Nc3c(Br)cc(Br)c(C)c32)cc1C(C)(C)C [10733/H04],−24.0
13,CCn1c2ccccc2c2cc(C=C3C(=O)Nc4c(Br)cc(Br)c(C)c43)ccc21 [10731/H02],−9.5
14,COc1ccc(OC)c(C=C2C(=O)Nc3c(Br)cc(Br)c(C)c32)c1 [10728/H02],−36.6
15,COC1CC(C=C2C(=O)Nc3c(Br)cc(Br)c(C)c32)C(OC)O1 (centres unmarked) [10730/H10],1.7
16,COc1ccc(C=C2C(=O)Nc3c(Br)cc(Br)c(C)c32)c2ccccc12 [10729/H03],30.3
17,Cc1cc(C=C2C(=O)Nc3c(Br)cc(Br)c(C)c32)oc1C [10730/H11],26.4
18,Cc1ccc(C=C2C(=O)Nc3c(Br)cc(Br)c(C)c32)s1 [10717/H07],91.2
19,COc1ccc(C=C2C(=O)Nc3c(Br)cc(Br)c(C)c32)c(OC)c1OC [10730/H02],12.6

row,Structure (SMILES),Biochem EGFR % Inhibition (P.167) [%]
1,Cc1c(Br)cc(Br)c2c1C(=Cc1c(F)cccc1C(F)(F)F)C(=O)N2 [10728/H09],−6.1
2,Cc1c(Br)cc(Br)c2c1C(=Cc1cc(Br)ccc1O)C(=O)N2 [10733/H09],−3.1
3,Cc1c(Br)cc(Br)c2c1C(=Cc1ccccc1OCC(=O)O)C(=O)N2 [10728/H10],−22.4
4,Cc1c(Br)cc(Br)c2c1C(=Cc1c[nH]c(=O)[nH]c1=O)C(=O)N2 [10731/H08],−0.5
5,Cc1c(Br)cc(Br)c2c1C(=CC1C=CCCC1)C(=O)N2 (centres unmarked) [10729/H11],0.8
6,COc1c(I)cc(C=C2C(=O)Nc3c(Br)cc(Br)c(C)c32)cc1C(C)(C)C [10732/H11],−15.1
7,Cc1c(Br)cc(Br)c2c1C(=Cc1cccc(Oc3ccccc3)c1)C(=O)N2 [10729/H06],−10.3
8,Cc1c(Br)cc(Br)c2c1C(=Cc1cc(O)ccc1O)C(=O)N2 [10727/H10],83.6
9,COc1cc(C=C2C(=O)Nc3c(Br)cc(Br)c(C)c32)cc(OC)c1 [10728/H04],−0.6
10,Cc1c(Br)cc(Br)c2c1C(=Cc1ccccc1Sc1ccc(Cl)cc1)C(=O)N2 [10727/H05],0.4
11,COc1c(O)ccc(C=C2C(=O)Nc3c(Br)cc(Br)c(C)c32)c1[N+](=O)[O-] [10733/H11],7.0
12,COc1cc(Br)cc(C=C2C(=O)Nc3c(Br)cc(Br)c(C)c32)c1O [10733/H08],0.3
13,COc1ccc(C=C2C(=O)Nc3c(Br)cc(Br)c(C)c32)cc1C(C)(C)C [10732/H05],−2.9
14,CCc1cc(CC)c(C=C2C(=O)Nc3c(Br)cc(Br)c(C)c32)[nH]1 [10727/H03],4.5
15,Cc1c(Br)cc(Br)c2c1C(=Cc1cccc(C#N)c1)C(=O)N2 [10727/H08],−8.0
16,Cc1c(Br)cc(Br)c2c1C(=Cc1ccc(OCc3ccccc3)c(C(C)(C)C)c1)C(=O)N2 [10732/H06],−6.9
17,Cc1c(Br)cc(Br)c2c1C(=Cc1ccc(Br)cc1)C(=O)N2 [10717/H08],33.4
18,Cc1c(Br)cc(Br)c2c1C(=Cc1ccc[nH]1)C(=O)N2 [10717/H09],5.4
